Measured values reported in patent US5792784A, “Coupling product obtained from histamine and an amino acid” (Babizhayev; Marc, priority 1993, dated 1998).

Key:
[1] = "Peroxidase" type activity on liposome model: reduction of phosphatidylcholine hydroperoxides (PC-OOH); format: biochemical
Experimental: The "peroxidase" type activity also has been evaluated on a "liposome" model. The phosphatidylcholine hydroperoxides (PC-OOH) are prepared according to a similar procedure to the one already described for the linoleic acid monoperoxide.
The peroxide species reduction is followed by dosing the remaining peroxides according to the method laid down by Hicks M and Gebicki J. M.--Anal. Biochem, vol 99, (1979), p. 249-253.

[2] = tested on: cataract; assay: Cataract patients: modification of the visual acuity at the end of 24 months; format: in vivo; details: 24 months
Description: This example concerns the utilization of the β-alanyl-histamine to treat patients affected by cataract.
The study has been designed for a prospective evaluation of the modifications of the lens opacity in patients effected by cataract. All the patients have undergone an initial ophtalmic examination. It involved the making of the medical historical record of the patient, a measurement of the visual acuity at a maximum correction, direct or indirect ophtalmoscopies, an evaluation of the opacities with the slit lamp, a clinical grading of the lens after maximal mydriasis, a classification according to the cataract type, and lens pictures by retroillumination. Moreover, samples of blood have been taken at the beginning, then in follow-up for chemical analysis.
The general view has allowed to establish the initial state of patients before the treatment (definition of "base line").
Follow-up of ophtalmic examinations were carried out every two weeks for two months, then every month. They included maximum visual acuity after correction, direct or indirect ophtalmoscopies, a slit lamp examination, and after a maximum dilation of the pupil (excluding patients with primary open-angle glaucoma), a clinical lens grading, a classification of the cataract. Pictures also have been taken on lens observed by retroillumination or with the slit lamp.
In this study, differents groups have been determined, to be seen:
A group reference 1, with non-treated patients (5 patients, 7 eyes) […]
A group 3, has been submitted to the same treatment than the group 2, stimulated by an "attack type of treatment" during the first two weeks: 2 subcon-junctival junctival injections twice a week of 0.10 to 0.15 ml of the saline defined for the group 2 (3 patients, 4 eyes).
A group 4, which was given a local dose by way of an eye drop of isotonic saline twice a day (5 patients 7 eyes), the group 4 being like the group 1, a reference group.
Following the protocol described above, we determine the values of the optic density of the lens according to its opacity as well as the visual acuity, and the whole for 24 months. Considering these two parameters, we obtain tables giving results concerning the modification of the visual acuity at the end of 24 months in Tables 1 and 2, and the results concerning the modification of the visual opacity at the end of 24 months in Tables 3 and 4.

[3] = groups 2 and 3, start acuity 20/30
[4] = groups 2 and 3, start acuity 20/40
[5] = groups 2 and 3, start acuity 20/50
[6] = groups 2 and 3, start acuity 20/70
[7] = groups 2 and 3, start acuity 20/100
[8] = groups 2 and 3, total of 19 eyes

With `NCCC(=O)NCCc1c[nH]cn1` [β-alanyl-histamine] the “number of moles of PC-OOH reduced/initial number of moles of PC/hour” value ([1]; 10 mM) was 0.77 × 10^-3 moles of PC-OOH reduced/initia, the “number of moles of PC-OOH reduced/initial number of moles of PC/hour” value ([1]; 25 mM) was 1.56 × 10^-3 moles of PC-OOH reduced/initia and the “improvement of the visual acuity + (number of eyes)” value ([2]; groups 2 and 3, start acuity 20/25) was 1 eyes. The “improvement of the visual acuity + (number of eyes)” value [2, 3] was 1 eyes, the “improvement of the visual acuity ++ (number of eyes)” value [2, 3] was 4 eyes and the “improvement of the visual acuity + (number of eyes)” value [2, 4] was 1 eyes. For the same compound, the “improvement of the visual acuity ++ (number of eyes)” value [2, 4] was 3 eyes, the “improvement of the visual acuity + (number of eyes)” value [2, 5] was 1 eyes and the “improvement of the visual acuity ++ (number of eyes)” value [2, 5] was 1 eyes. For the same compound, the “improvement of the visual acuity + (number of eyes)” value [2, 6] was 1 eyes, the “improvement of the visual acuity ++ (number of eyes)” value [2, 6] was 1 eyes and the “improvement of the visual acuity ++ (number of eyes)” value [2, 7] was 1 eyes. For the same compound, the “improvement of the visual acuity +++ (number of eyes)” value [2, 7] was 2 eyes, the “regression of the visual acuity ++ (number of eyes)” value [2, 7] was 1 eyes and the “improvement of the visual acuity ++ (number of eyes)” value ([2]; groups 2 and 3, start acuity 20/200) was 1 eyes. The “improvement of the visual acuity + (number of eyes)” value [2, 8] was 5 eyes, the “improvement of the visual acuity ++ (number of eyes)” value [2, 8] was 11 eyes and the “improvement of the visual acuity +++ (number of eyes)” value [2, 8] was 2 eyes. For the same compound, the “regression of the visual acuity + (number of eyes)” value [2, 8] was 0 eyes, the “regression of the visual acuity ++ (number of eyes)” value [2, 8] was 1 eyes and the “regression of the visual acuity +++ (number of eyes)” value [2, 8] was 0 eyes. The “improvement of the vision and regression of cataract” value ([2]; two parameters: visual acuity and opacity) was “very significant in the improvement of the vision and the regression of cataract”.
